Source: US9238644B2, “VEGFR3 inhibitors” (CANCER THERAPEUTICS CRC PTY LIMITED, priority 2012, dated 2016)

How the values were obtained:
[1] = biological target: VEGFR3 cytoplasmic domain (Homo sapiens, UniProt P35916); test: VEGFR3 Biochemical assay (AlphaScreen); conditions: N-terminal GST-fusion enzyme, 500 μM ATP, 90 minutes at 30 degree Celsius (modified form: Hexa-His-fusion, 1 μM ATP)
VEGFR2 = VEGFR2 (Homo sapiens (Human), UniProt P35968); test: VEGFR2 Phospho ELISA assay; conditions: HUVEC, treated 1 hour, VEGF stimulated; phospho VEGFR2 relative to Total VEGFR2
Chain of VEGFR2 (P35968 20-1356): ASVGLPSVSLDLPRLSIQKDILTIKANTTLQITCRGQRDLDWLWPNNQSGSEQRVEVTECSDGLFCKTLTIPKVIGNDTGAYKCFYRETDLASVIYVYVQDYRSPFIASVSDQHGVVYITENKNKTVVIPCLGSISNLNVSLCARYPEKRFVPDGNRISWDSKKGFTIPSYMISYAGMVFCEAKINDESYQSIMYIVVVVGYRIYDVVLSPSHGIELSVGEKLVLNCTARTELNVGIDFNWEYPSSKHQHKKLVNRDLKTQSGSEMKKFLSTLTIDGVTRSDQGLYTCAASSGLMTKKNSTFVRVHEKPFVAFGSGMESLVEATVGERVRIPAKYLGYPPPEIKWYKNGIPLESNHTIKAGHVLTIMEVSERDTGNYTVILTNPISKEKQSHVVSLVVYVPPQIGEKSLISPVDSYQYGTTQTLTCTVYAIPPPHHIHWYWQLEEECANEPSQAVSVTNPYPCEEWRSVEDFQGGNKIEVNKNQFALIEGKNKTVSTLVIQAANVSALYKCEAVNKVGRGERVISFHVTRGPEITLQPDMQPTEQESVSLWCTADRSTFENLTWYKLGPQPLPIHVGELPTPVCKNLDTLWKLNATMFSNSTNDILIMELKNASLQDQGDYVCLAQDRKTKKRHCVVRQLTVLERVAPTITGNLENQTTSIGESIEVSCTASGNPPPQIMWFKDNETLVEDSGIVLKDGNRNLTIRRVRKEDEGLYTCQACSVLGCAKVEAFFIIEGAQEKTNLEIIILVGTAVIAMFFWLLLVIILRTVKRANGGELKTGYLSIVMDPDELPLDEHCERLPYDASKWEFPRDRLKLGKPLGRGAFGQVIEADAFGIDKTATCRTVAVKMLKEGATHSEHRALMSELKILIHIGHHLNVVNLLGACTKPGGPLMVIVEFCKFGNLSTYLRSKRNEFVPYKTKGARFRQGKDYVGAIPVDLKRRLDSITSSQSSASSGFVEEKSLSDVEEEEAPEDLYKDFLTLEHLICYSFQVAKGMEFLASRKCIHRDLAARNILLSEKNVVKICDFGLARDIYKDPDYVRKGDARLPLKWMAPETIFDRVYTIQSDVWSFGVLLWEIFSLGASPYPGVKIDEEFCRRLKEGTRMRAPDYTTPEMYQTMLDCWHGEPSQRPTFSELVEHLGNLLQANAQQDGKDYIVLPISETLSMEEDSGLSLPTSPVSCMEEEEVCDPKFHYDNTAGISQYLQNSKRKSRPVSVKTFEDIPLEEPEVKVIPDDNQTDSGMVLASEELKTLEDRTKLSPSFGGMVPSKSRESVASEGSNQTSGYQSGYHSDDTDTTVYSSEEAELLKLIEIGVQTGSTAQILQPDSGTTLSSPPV

VEGFR3 = VEGFR3 (Homo sapiens (Human), UniProt P35916); test: VEGFR3 Phospho ELISA assay; format: cell-based; conditions: HMVEC-dLyAD cells, treated 1 hour, VEGFC stimulated; phospho VEGFR3 relative to Total VEGFR3
Chain of VEGFR3 (P35916 25-1363): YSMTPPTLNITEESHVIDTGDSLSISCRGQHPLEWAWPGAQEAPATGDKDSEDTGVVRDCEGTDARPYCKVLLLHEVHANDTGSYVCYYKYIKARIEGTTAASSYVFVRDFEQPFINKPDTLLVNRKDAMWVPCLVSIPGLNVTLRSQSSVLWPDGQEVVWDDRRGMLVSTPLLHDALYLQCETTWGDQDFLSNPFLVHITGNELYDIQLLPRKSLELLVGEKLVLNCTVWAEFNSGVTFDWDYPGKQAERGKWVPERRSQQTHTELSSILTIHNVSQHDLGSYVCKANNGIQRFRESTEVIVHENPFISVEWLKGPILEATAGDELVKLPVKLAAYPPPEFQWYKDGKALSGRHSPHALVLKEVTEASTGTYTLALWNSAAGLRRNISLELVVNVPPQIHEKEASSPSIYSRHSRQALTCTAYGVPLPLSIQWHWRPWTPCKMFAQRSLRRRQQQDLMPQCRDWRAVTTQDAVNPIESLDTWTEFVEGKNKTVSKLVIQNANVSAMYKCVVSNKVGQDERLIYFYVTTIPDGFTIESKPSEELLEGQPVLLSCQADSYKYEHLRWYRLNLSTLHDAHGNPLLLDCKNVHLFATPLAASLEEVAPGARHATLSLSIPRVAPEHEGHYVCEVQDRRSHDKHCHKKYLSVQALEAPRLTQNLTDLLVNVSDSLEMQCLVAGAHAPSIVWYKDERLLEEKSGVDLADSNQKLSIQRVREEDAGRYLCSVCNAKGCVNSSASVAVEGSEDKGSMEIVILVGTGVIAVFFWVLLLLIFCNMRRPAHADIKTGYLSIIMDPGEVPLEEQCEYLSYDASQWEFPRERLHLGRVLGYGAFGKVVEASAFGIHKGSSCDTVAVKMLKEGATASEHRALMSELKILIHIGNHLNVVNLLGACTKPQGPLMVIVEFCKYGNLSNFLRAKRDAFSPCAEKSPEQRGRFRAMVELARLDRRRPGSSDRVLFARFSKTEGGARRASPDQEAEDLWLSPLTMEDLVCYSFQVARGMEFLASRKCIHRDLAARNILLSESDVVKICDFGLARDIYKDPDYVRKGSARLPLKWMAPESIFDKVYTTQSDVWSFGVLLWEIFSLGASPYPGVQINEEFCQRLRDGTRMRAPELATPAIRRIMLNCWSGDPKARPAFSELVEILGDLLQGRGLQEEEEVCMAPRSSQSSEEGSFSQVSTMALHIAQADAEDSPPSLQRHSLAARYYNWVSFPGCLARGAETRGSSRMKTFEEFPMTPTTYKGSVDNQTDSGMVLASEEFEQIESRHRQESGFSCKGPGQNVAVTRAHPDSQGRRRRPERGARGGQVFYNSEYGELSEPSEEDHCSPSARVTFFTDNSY
Protocol: Adult human dermal lymphatic microvascular endothelial cells (HMVEC-dLyAD) (Cat# CC-2810, Lonza) were seeded into clear-bottom, TC treated 12 well plates (Cat #665180, Greiner Bio-One) in EGM-2MV (Cat# CC-3202, Lonza) at 180,000 cells/well (volume 1 mL), and the plates incubated at 37° C. and 5% CO2 for 6 hours.
96 well Maxisorp immuno plates (Cat #439454, Nunc) were coated with 100 μL of Total VEGFR3 capture antibody (Part #841888, Human Total VEGFR3/FLT4 ELISA Kit, Cat # DYC3491, R&D Systems), or Phospho VEGFR3 Capture antibody (Part #841885, Human Phospho VEGFR3/FLT4 ELISA Kit, Cat# DYC2724, R&D Systems). The plates were covered and incubated at room temperature overnight.
The coating antibody was flicked out and the plates washed three times with Wash Buffer (Phosphate buffered saline (137 mM NaCl, 2.7 nM KCl, 8.1 nM Na2HPO4, 1.5 mL KH2PO4, pH 7.2-7.4), 0.05% Tween 20). 300 μL of blocking buffer (5% v/v Tween 20, 5% w/v sucrose in PBS) was then added to wells and plate incubated for 2 hours at room temperature. Blocking solution is flicked out and plates washed three times and tapped dry.
Compound dilution series were prepared in EBM-2 (Cat # CC-3156, Lonza)+0.1% BSA (Cat# A8412, Sigma) with constant 0.1% DMSO concentration. […]
Total VEGFR3 levels were quantified using a Multiskan Ascent plate reader and Ascent software fitted with 450 nm filter. […]

Chain of VEGFR3 cytoplasmic domain (P35916 25-1363 limits assumed): as the sequence (P35916 25-1363) above

NC(=O)C1(c2ccccc2CCc2nc(Nc3ccc(C(F)(F)F)nc3)ncc2C(F)(F)F)CC1 [Compound 10]
IC50 [1]: 92 nM

CC(C(N)=O)c1ccccc1CCc1nc(Nc2cnn(C3CCN(C)CC3)c2)ncc1C(F)(F)F (single isomer, unassigned) [Compound 57-2A, 2-(2-(2-(2-((1-(1-Methylpiperidin-4-yl)-1H-pyrazol-4-yl)amino)-5-(trifluoromethyl)pyrimidin-4-yl)ethyl)phenyl)propanamide]
IC50 (VEGFR2): 382 nM

CC(C(N)=O)c1ccccc1CCc1nc(Nc2cnn(C3CCNCC3)c2)ncc1C(F)(F)F (racemic) [Compound 56, 2-(2-(2-(2-((1-(piperidin-4-yl)-1H-pyrazol-4-yl)amino)-5-(trifluoromethyl)pyrimidin-4-yl)ethyl)phenyl)propanamide]
IC50 (VEGFR2): 2220 nM

CCC(C(N)=O)c1ccccc1CCc1nc(Nc2ccc(C3CCNCC3)cc2)ncc1C(F)(F)F (racemic) [Compound 1, 2-(2-(2-(2-((4-(piperidin-4-yl)phenyl)amino)-5-(trifluoromethyl)pyrimidin-4-yl)ethyl)phenyl)butanamide]
IC50 (VEGFR2): > 10000 nM | IC50 [1]: 91 nM | IC50 (VEGFR3): 173 nM
